Experimental data as given in ChEMBL document CHEMBL6182863, “Discovery of novel rigid STING PROTAC degraders as potential therapeutics for acute kidney injury” (Eur J Med Chem, 2025).
In brackets after ≈: the same amount, converted by molar mass. Activity calls are given as the source filed them. The rule behind the calls is not given here.

Assays:
[1] = biological target: Protein cereblon/Stimulator of interferon genes protein (Homo sapiens, UniProt Q96SW2+Q86WV6); assay: PROTAC activity at CRBN/STING in human THP-1 cells assessed as induction of STING degradation at 5 uM measured after 24 hrs by Western blotting analysis relative to control; type: cell-based
Chain of Protein cereblon/Stimulator of interferon genes protein (Q86WV6 whole entry, looked up): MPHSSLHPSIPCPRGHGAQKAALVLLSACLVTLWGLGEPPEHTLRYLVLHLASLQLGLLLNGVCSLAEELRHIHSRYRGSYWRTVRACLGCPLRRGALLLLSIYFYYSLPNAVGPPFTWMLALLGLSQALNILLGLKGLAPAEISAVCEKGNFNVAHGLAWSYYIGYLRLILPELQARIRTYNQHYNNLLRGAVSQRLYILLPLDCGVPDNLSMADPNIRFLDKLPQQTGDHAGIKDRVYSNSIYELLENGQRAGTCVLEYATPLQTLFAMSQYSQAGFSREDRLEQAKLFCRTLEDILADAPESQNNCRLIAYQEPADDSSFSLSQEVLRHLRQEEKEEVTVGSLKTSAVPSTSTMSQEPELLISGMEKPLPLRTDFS
Chain of Protein cereblon/Stimulator of interferon genes protein (Q96SW2 whole entry, looked up): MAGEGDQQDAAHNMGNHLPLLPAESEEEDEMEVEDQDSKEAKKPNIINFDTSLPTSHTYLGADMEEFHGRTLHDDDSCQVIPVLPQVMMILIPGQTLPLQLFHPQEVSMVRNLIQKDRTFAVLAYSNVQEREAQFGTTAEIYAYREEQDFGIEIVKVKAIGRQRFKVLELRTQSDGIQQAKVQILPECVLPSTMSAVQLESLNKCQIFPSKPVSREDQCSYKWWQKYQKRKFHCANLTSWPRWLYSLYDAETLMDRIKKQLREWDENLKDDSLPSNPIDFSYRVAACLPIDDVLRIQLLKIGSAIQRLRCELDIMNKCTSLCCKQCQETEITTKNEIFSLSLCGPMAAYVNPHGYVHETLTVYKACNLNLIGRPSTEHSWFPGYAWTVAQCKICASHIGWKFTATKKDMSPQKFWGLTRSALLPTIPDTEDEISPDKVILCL

[2] = Water solubility of the compound at 2 mg by HPLC analysis; type: physicochemical
[3] = Metabolic stability in human liver microsomes assessed as half life; type: ADME, Microsome
[4] = Metabolic stability in human liver microsomes assessed as metabolic factor relative to control; type: ADME, Microsome
[5] = Metabolic stability in human liver microsomes assessed as intrinsic clearance per gram of protein; type: ADME, Microsome
[6] = biological target: von Hippel-Lindau disease tumor suppressor/Stimulator of interferon genes protein (Homo sapiens, UniProt P40337+Q86WV6); assay: PROTAC activity at VHL/STING (unknown origin); type: protein assay
Chain of von Hippel-Lindau disease tumor suppressor/Stimulator of interferon genes protein (P40337 whole entry): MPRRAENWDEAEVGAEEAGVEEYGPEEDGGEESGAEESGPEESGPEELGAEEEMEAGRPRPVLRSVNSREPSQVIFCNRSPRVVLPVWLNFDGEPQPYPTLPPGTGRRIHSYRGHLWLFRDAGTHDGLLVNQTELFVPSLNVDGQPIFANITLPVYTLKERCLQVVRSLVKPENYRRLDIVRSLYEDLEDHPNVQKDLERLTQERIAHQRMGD
Chain of von Hippel-Lindau disease tumor suppressor/Stimulator of interferon genes protein (Q86WV6 whole entry): as the sequence (Q86WV6 whole entry, looked up) above

Row | Activity [1] | SMILES | other results
1 | 20.3% | O=C(/C=C/C(=O)N1CCN(c2cccc3c2C(=O)N(C2CCC(=O)NC2=O)C3=O)CC1)Nc1ccc(NC(=O)c2ccc([N+](=O)[O-])o2)cc1 (stereo not drawn) | 
2 | 43.6% | O=C(/C=C/C(=O)N1CCN(CC2CCN(c3cccc4c3C(=O)N(C3CCC(=O)NC3=O)C4=O)CC2)CC1)Nc1ccc(NC(=O)c2ccc([N+](=O)[O-])o2)cc1 (stereo not drawn) | 
3 | 77.7% | O=C(/C=C/C(=O)N1CCN(CC2CCCN2c2cccc3c2C(=O)N(C2CCC(=O)NC2=O)C3=O)CC1)Nc1ccc(NC(=O)c2ccc([N+](=O)[O-])o2)cc1 (stereo not drawn) | solubility [2]: 2.872 µg/mL (≈ 3.82 µM)
4 | 40.5% | O=C1CCC(N2C(=O)c3cccc(N4CCC(N5CCN(C(=O)CCCC(=O)Nc6ccc(NC(=O)c7ccc([N+](=O)[O-])o7)cc6)CC5)C4)c3C2=O)C(=O)N1 (stereo not drawn) | 
5 | inactive | O=C1CCC(N2C(=O)c3cccc(N4CCC(N5CCN(C(=O)CCC(=O)Nc6ccc(NC(=O)c7ccc([N+](=O)[O-])o7)cc6)CC5)C4)c3C2=O)C(=O)N1 (stereo not drawn) | 
6 | 43.6% | O=C(/C=C/C(=O)N1CC(CN2CCN(c3cccc4c3C(=O)N(C3CCC(=O)NC3=O)C4=O)CC2)C1)Nc1ccc(NC(=O)c2ccc([N+](=O)[O-])o2)cc1 (stereo not drawn) | solubility [2]: 6.485 µg/mL (≈ 8.78 µM)
7 | inactive | O=C(/C=C/C(=O)N1CCN(C2CCN(c3ccc4c(c3)C(=O)N(C3CCC(=O)NC3=O)C4=O)C2)CC1)Nc1ccc(NC(=O)c2ccc([N+](=O)[O-])o2)cc1 (stereo not drawn) | 
8 | 30.3% | O=C(/C=C/C(=O)N1CC(N2CCN(c3cccc4c3C(=O)N(C3CCC(=O)NC3=O)C4=O)CC2)C1)Nc1ccc(NC(=O)c2ccc([N+](=O)[O-])o2)cc1 (stereo not drawn) | 
9 | 58% | O=C(/C=C/C(=O)N1CCN(C2CCN(c3cccc4c3C(=O)N(C3CCC(=O)NC3=O)C4=O)C2)CC1)Nc1ccc(NC(=O)c2ccc([N+](=O)[O-])o2)cc1 (stereo not drawn) | solubility [2]: 6.098 µg/mL (≈ 8.25 µM)
10 | 71.1% | O=C(/C=C/C(=O)N1CCC(CN2CCN(c3cccc4c3C(=O)N(C3CCC(=O)NC3=O)C4=O)CC2)CC1)Nc1ccc(NC(=O)c2ccc([N+](=O)[O-])o2)cc1 (stereo not drawn) | solubility [2]: 1.562 µg/mL (≈ 2.04 µM)
11 | inactive | O=C(/C=C/C(=O)N1CCC(N2CCN(c3cccc4c3C(=O)N(C3CCC(=O)NC3=O)C4=O)CC2)CC1)Nc1ccc(NC(=O)c2ccc([N+](=O)[O-])o2)cc1 (stereo not drawn) | 
12 | 25.3% | O=C(/C=C/C(=O)N1CCN(C2CCN(c3cccc4c3C(=O)N(C3CCC(=O)NC3=O)C4=O)CC2)CC1)Nc1ccc(NC(=O)c2ccc([N+](=O)[O-])o2)cc1 (stereo not drawn) | 

The next lines start with the compound.

Row | SMILES | Activity [1] | other results
13 | O=C(/C=C/C(=O)N1CCN(CC2CCN(c3ccc4c(c3)C(=O)N(C3CCC(=O)NC3=O)C4=O)CC2)CC1)Nc1ccc(NC(=O)c2ccc([N+](=O)[O-])o2)cc1 (stereo not drawn) | 63.6% | 
14 | O=C1CCC(N2C(=O)c3cccc(N4CCC(N5CCN(C(=O)COCC(=O)Nc6ccc(NC(=O)c7ccc([N+](=O)[O-])o7)cc6)CC5)C4)c3C2=O)C(=O)N1 (stereo not drawn) | inactive | 
15 | O=C1CCC(N2C(=O)c3cccc(N4CCN(CC5CCN(C(=O)COCC(=O)Nc6ccc(NC(=O)c7ccc([N+](=O)[O-])o7)cc6)CC5)CC4)c3C2=O)C(=O)N1 (stereo not drawn) | 32.6% | 
16 | O=C1CCC(N2C(=O)c3cccc(N4CCN(CC5CCN(C(=O)CCCC(=O)Nc6ccc(NC(=O)c7ccc([N+](=O)[O-])o7)cc6)CC5)CC4)c3C2=O)C(=O)N1 (stereo not drawn) | inactive | 
17 | O=C(/C=C/C(=O)N1CCC(CN2CCN(c3ccc4c(c3)C(=O)N(C3CCC(=O)NC3=O)C4=O)CC2)CC1)Nc1ccc(NC(=O)c2ccc([N+](=O)[O-])o2)cc1 (stereo not drawn) | 52.3% | 
18 | O=C(/C=C/C(=O)Nc1ccc(NC(=O)c2ccc([N+](=O)[O-])o2)cc1)NCCCCCCNc1cccc2c1C(=O)N(C1CCC(=O)NC1=O)C2=O (stereo not drawn) | 59.2% | half-life [3]: 1.41 min; Activity [4]: 1.3%; CLint [5]: 1490 mL/min/g; solubility [2]: 0.854 µg/mL (≈ 1.22 µM)
19 | CCn1nc(C)cc1C(=O)Nc1nc2cc(C(=O)NCCCCCCCCC(=O)N[C@@H](C(=O)N3C[C@H](O)C[C@H]3C(=O)NCc3ccc(-c4scnc4C)cc3)C(C)(C)C)cc(OC)c2n1C/C=C/Cn1c(NC(=O)c2cc(C)nn2CC)nc2cc(C(N)=O)cc(OCCCN3CCOCC3)c21 |  | DC50 [6]: 227 nM
20 | O=C1CCC(N2C(=O)c3cccc(N4CCC(CN5CCN(C(=O)COCC(=O)Nc6ccc(NC(=O)c7ccc([N+](=O)[O-])o7)cc6)CC5)C4)c3C2=O)C(=O)N1 (stereo not drawn) | inactive | 
21 | O=C1CCC(N2C(=O)c3cccc(N4CCN(CC5CN(C(=O)COCC(=O)Nc6ccc(NC(=O)c7ccc([N+](=O)[O-])o7)cc6)C5)CC4)c3C2=O)C(=O)N1 (stereo not drawn) | inactive | 
22 | O=C1CCC(N2C(=O)c3cccc(N4CCN(CC5CN(C(=O)CCCC(=O)Nc6ccc(NC(=O)c7ccc([N+](=O)[O-])o7)cc6)C5)CC4)c3C2=O)C(=O)N1 (stereo not drawn) | inactive | 
23 | O=C1CCC(N2C(=O)c3cccc(N4CCC(CN5CCN(C(=O)CCCC(=O)Nc6ccc(NC(=O)c7ccc([N+](=O)[O-])o7)cc6)CC5)C4)c3C2=O)C(=O)N1 (stereo not drawn) | 36.3% | 
24 | O=C1CCC(N2C(=O)c3cccc(N4CCC(CN5CCN(C(=O)CCC(=O)Nc6ccc(NC(=O)c7ccc([N+](=O)[O-])o7)cc6)CC5)C4)c3C2=O)C(=O)N1 (stereo not drawn) | 44.7% | 
25 | O=C(/C=C/C(=O)N1CCN(CC2CCN(c3ccc4c(c3)C(=O)N(C3CCC(=O)NC3=O)C4=O)C2)CC1)Nc1ccc(NC(=O)c2ccc([N+](=O)[O-])o2)cc1 (stereo not drawn) | 73.6% | 
26 | O=C(/C=C/C(=O)N1CCN(CC2CCCN2c2ccc3c(c2)C(=O)N(C2CCC(=O)NC2=O)C3=O)CC1)Nc1ccc(NC(=O)c2ccc([N+](=O)[O-])o2)cc1 (stereo not drawn) | 72.3% | 
27 | O=C(/C=C/C(=O)N1CC(CN2CCN(c3ccc4c(c3)C(=O)N(C3CCC(=O)NC3=O)C4=O)CC2)C1)Nc1ccc(NC(=O)c2ccc([N+](=O)[O-])o2)cc1 (stereo not drawn) | inactive | 
28 | O=C1CCC(N2C(=O)c3cccc(N4CCN(CC5CN(C(=O)CCC(=O)Nc6ccc(NC(=O)c7ccc([N+](=O)[O-])o7)cc6)C5)CC4)c3C2=O)C(=O)N1 (stereo not drawn) | 40.7% | 
29 | Cc1ncsc1-c1ccc(CNC(=O)[C@@H]2C[C@@H](O)CN2C(=O)[C@@H](NC(=O)CCC(=O)NCCCNC(=O)c2cccc(S(=O)(=O)n3cc(C(=O)NCCCCCC(=O)Oc4ccc(NC(=O)c5ccc(-c6ccccc6)cc5)cc4NS(=O)(=O)c4ccc(F)cc4)ccc3=O)c2)C(C)(C)C)cc1 |  | DC50 [6]: 530 nM
30 | O=C1CCC(N2C(=O)c3cccc(N4CCN(CC5CCN(C(=O)CCC(=O)Nc6ccc(NC(=O)c7ccc([N+](=O)[O-])o7)cc6)CC5)CC4)c3C2=O)C(=O)N1 (stereo not drawn) | inactive | 
